According to ChEMBL document CHEMBL1201862, “PubChem BioAssay data set” (2004):
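Cultured in 96-well plates, cells were exposed to test compound for 48 hours across five concentrations. GI50 = concentration required for 50% inhibition of growth.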 Active and inactive are the calls of the source. Cut-off read from the data, not from the text of the source: active = GI50 up to about 1.1 µM and inactive = higher. Peptide text beside a SMILES is read from it. * marks the point of attachment. X27 = Clc1c(Cl)c(Cl)c(O*)c(Cl)c1Cl; Boc = CC(C)(C)OC(=O)*; OBn = c1ccc(CO*)cc1; Bn = c1ccc(C*)cc1

Legend:
Test in all cases: DTP human tumour cell line panel, 48 h
CCRF-CEM = test system: CCRF-CEM
EKVX = test system: EKVX
RPMI-8226 = test system: RPMI-8226
U-251 = test system: U-251
HL-60 = test system: HL-60
NCI-H460 = test system: NCI-H460
SN12C = test system: SN12C
K562 = test system: K562
HT-29 = test system: HT-29
A498 = test system: A498
SK-OV-3 = test system: SK-OV-3
SNB-75 = test system: SNB-75
SR = test system: SR
COLO 205 = test system: COLO 205
KM12 = test system: KM12
MOLT-4 = test system: MOLT-4
A549 = test system: A549
MCF7 = test system: MCF7
BT-549 = test system: BT-549

Measured: GI50

O=[N+]([O-])c1ccc(C2N3CCCCC3[C@H]3CCCCN23)cc1 (stereo not given in full)
inactive: CCRF-CEM > 100 µM | EKVX > 100 µM | RPMI-8226 > 100 µM | U-251 > 100 µM | HL-60 > 100 µM | NCI-H460 > 100 µM | SN12C > 100 µM | K562 > 100 µM | HT-29 > 100 µM | A498 > 100 µM | SK-OV-3 > 100 µM | SNB-75 > 100 µM | SR > 100 µM | COLO 205 > 100 µM | KM12 > 100 µM | MOLT-4 > 100 µM | A549 > 100 µM

C=C(CN(CC)CC)C1(c2ccccc2)CC2(CCCC2)C(=O)O1 (stereo not given)
inactive: MCF7 > 100 µM | CCRF-CEM > 100 µM | EKVX > 100 µM | RPMI-8226 76.2 µM | U-251 > 100 µM | HL-60 40.6 µM | NCI-H460 68.7 µM | SN12C > 100 µM | K562 > 100 µM | HT-29 24.2 µM | A498 > 100 µM | SK-OV-3 > 100 µM | SNB-75 33 µM | SR > 100 µM | COLO 205 55 µM | KM12 > 100 µM | MOLT-4 53.1 µM | A549 > 100 µM

O=c1[nH]c(=O)n(C2CC(O)C(COP(=O)(OCC(Cl)(Cl)Cl)OCC(Cl)(Cl)Cl)O2)cc1F (stereo not given)
active: MCF7 0.0619 µM | CCRF-CEM 0.195 µM | NCI-H460 < 0.0226 µM | SR 0.391 µM | MOLT-4 1.1 µM | A549 0.212 µM
inactive: EKVX > 100 µM | RPMI-8226 3.72 µM | U-251 2.95 µM | HL-60 5.85 µM | SN12C 26.1 µM | K562 4.11 µM | HT-29 9.23 µM | SK-OV-3 > 48.6 µM | SNB-75 6.1 µM | COLO 205 23.5 µM | KM12 > 100 µM

COc1cc(N(Cc2ccc3oc(=O)c(-c4ccccc4)nc3c2)Cc2ccc3oc(=O)c(-c4ccccc4)nc3c2)cc(OC)c1OC
inactive: MCF7 > 10 µM | CCRF-CEM > 10 µM | EKVX > 10 µM | RPMI-8226 > 10 µM | U-251 > 10 µM | HL-60 > 10 µM | NCI-H460 > 10 µM | SN12C > 10 µM | K562 > 10 µM | HT-29 > 10 µM | SK-OV-3 > 10 µM | SNB-75 > 10 µM | SR > 10 µM | COLO 205 > 10 µM | KM12 > 10 µM | MOLT-4 > 10 µM | A549 > 10 µM

Cc1ccsc1/C=N/Nc1cnccn1
inactive: MCF7 3.53 µM | CCRF-CEM > 100 µM | EKVX 63.5 µM | RPMI-8226 > 100 µM | U-251 > 100 µM | HL-60 35.9 µM | SN12C > 100 µM | K562 > 100 µM | HT-29 76.9 µM | A498 62.4 µM | SK-OV-3 > 100 µM | SNB-75 > 100 µM | BT-549 > 100 µM | COLO 205 > 100 µM | KM12 99.5 µM | MOLT-4 78.7 µM | A549 > 100 µM

Cc1nc2cccc(F)c2c(=O)n1-c1nnc(C(F)(F)F)s1
inactive: MCF7 > 10 µM | CCRF-CEM > 10 µM | EKVX > 10 µM | RPMI-8226 > 10 µM | U-251 > 10 µM | HL-60 > 10 µM | NCI-H460 > 10 µM | SN12C > 10 µM | K562 > 10 µM | HT-29 > 10 µM | SK-OV-3 > 10 µM | SNB-75 > 10 µM | SR > 10 µM | COLO 205 > 10 µM | KM12 > 10 µM | MOLT-4 > 10 µM | A549 > 10 µM

O=C(OC[C@H]1C[C@H]2C(=O)OCCC[C@H]2O1)c1ccccc1
inactive: MCF7 > 100 µM | CCRF-CEM > 100 µM | EKVX > 100 µM | RPMI-8226 > 100 µM | U-251 > 100 µM | HL-60 > 100 µM | NCI-H460 > 100 µM | SN12C > 100 µM | K562 > 100 µM | HT-29 > 100 µM | A498 > 100 µM | SK-OV-3 > 100 µM | SNB-75 > 100 µM | SR > 100 µM | COLO 205 > 100 µM | KM12 > 100 µM | MOLT-4 > 100 µM | A549 > 100 µM

Nc1nc2c(ncn2CCOC(c2ccccc2)P(=O)(O)O)c(=O)[nH]1 (stereo not given)
active: U-251 1.09 µM
inactive: EKVX > 100 µM | HL-60 > 100 µM | NCI-H460 > 100 µM | SN12C > 100 µM | HT-29 > 100 µM | A498 > 100 µM | SK-OV-3 > 100 µM | SNB-75 > 100 µM | SR > 100 µM | COLO 205 > 100 µM | KM12 > 100 µM | A549 > 100 µM

CCN(CC)CCNC(=O)c1cc2cc(NC(=O)c3cc4cc(NC(=O)c5cc6cc([N+](=O)[O-])ccc6[nH]5)ccc4[nH]3)ccc2[nH]1
inactive: CCRF-CEM 10.6 µM | EKVX > 100 µM | U-251 > 100 µM | NCI-H460 > 100 µM | SN12C > 100 µM | K562 > 100 µM | HT-29 > 100 µM | A498 > 100 µM | SK-OV-3 > 100 µM | SNB-75 > 100 µM | BT-549 > 100 µM | COLO 205 > 100 µM | KM12 > 100 µM | A549 > 100 µM
active: RPMI-8226 < 0.01 µM | SR < 0.01 µM | MOLT-4 < 0.01 µM

N/C(=N\O)N/N=C/c1cc(Br)cc(Br)c1O
inactive: MCF7 6.21 µM | EKVX 14.9 µM | RPMI-8226 2.61 µM | U-251 2.78 µM | NCI-H460 3.32 µM | SN12C 1.86 µM | K562 2.65 µM | HT-29 11.4 µM | A498 3.96 µM | SK-OV-3 7.14 µM | SNB-75 2.86 µM | BT-549 2.44 µM | COLO 205 13 µM | KM12 5.08 µM | A549 5.27 µM
active: CCRF-CEM 0.491 µM | MOLT-4 1.12 µM

Cc1ccc(/N=N/C(=N/NC(=O)c2cc(Cl)ccc2C(=O)c2ccccc2)c2ccc(N(CCC#N)CCC#N)cc2C)cc1
inactive: MCF7 3.52 µM | CCRF-CEM 3.17 µM | EKVX 17.3 µM | RPMI-8226 10.2 µM | U-251 8.02 µM | NCI-H460 2.41 µM | SN12C 9.75 µM | K562 17.4 µM | HT-29 16.9 µM | SK-OV-3 8.09 µM | SNB-75 18.2 µM | BT-549 15.4 µM | COLO 205 9.14 µM | KM12 10.9 µM | MOLT-4 4.99 µM | A549 11.5 µM

CC(C)CC(NC(=O)C(CCC(=O)OCc1ccccc1)NC(=O)OC(C)(C)C)C(=O)NC(COCc1ccccc1)C(=O)NC(Cc1ccccc1)C(=O)Oc1c(Cl)c(Cl)c(Cl)c(Cl)c1Cl (stereo not given) (Boc-E(OBn)LS(Bn)F-X27; configuration not given here)
inactive: MCF7 22.6 µM | CCRF-CEM 26.7 µM | EKVX 16 µM | RPMI-8226 20.5 µM | U-251 18.5 µM | NCI-H460 27.2 µM | SN12C 29.1 µM | HT-29 35.6 µM | SK-OV-3 28.5 µM | SNB-75 40.2 µM | SR 29.2 µM | COLO 205 26.2 µM | KM12 20.4 µM | MOLT-4 22.6 µM | A549 28.6 µM

Cc1ccc(S(=O)(=O)NC(=O)NCC(=O)O)cc1
inactive: MCF7 > 100 µM | CCRF-CEM > 100 µM | RPMI-8226 > 100 µM | U-251 > 100 µM | HL-60 > 100 µM | NCI-H460 > 100 µM | SN12C > 100 µM | K562 > 100 µM | HT-29 > 100 µM | SK-OV-3 > 100 µM | SNB-75 > 100 µM | BT-549 > 100 µM | COLO 205 > 100 µM | KM12 > 100 µM | MOLT-4 > 100 µM | A549 > 100 µM

NNC(=O)CNC(=O)CSc1nnc(COc2ccc(Cl)cc2)n1-c1ccccc1
inactive: MCF7 > 100 µM | CCRF-CEM 60.5 µM | EKVX > 100 µM | U-251 > 100 µM | HL-60 > 100 µM | NCI-H460 > 100 µM | SN12C > 100 µM | K562 > 100 µM | HT-29 > 100 µM | A498 > 100 µM | SK-OV-3 > 100 µM | SNB-75 > 100 µM | COLO 205 > 100 µM | KM12 > 100 µM | MOLT-4 > 100 µM | A549 > 100 µM

CCOc1ccc(N/C(=C(/C(Cl)=C(/Cl)N(CC)CC)[N+](=O)[O-])n2nnc3ccccc32)cc1
inactive: MCF7 29.9 µM | CCRF-CEM 19.8 µM | EKVX 23.3 µM | RPMI-8226 26.9 µM | U-251 14 µM | NCI-H460 56.5 µM | SN12C 21.6 µM | K562 > 100 µM | HT-29 26.4 µM | A498 15 µM | SK-OV-3 56.1 µM | SNB-75 20.3 µM | BT-549 19.8 µM | COLO 205 21.6 µM | KM12 12 µM | MOLT-4 > 100 µM | A549 34.4 µM

COC(=O)c1cc(Br)c(C(=O)C(Cl)(Cl)Cl)[nH]1
inactive: CCRF-CEM > 100 µM | EKVX > 100 µM | RPMI-8226 > 100 µM | U-251 > 100 µM | HL-60 > 100 µM | NCI-H460 > 100 µM | SN12C > 100 µM | K562 > 100 µM | HT-29 > 100 µM | A498 > 100 µM | SK-OV-3 > 100 µM | SNB-75 > 100 µM | BT-549 > 100 µM | COLO 205 > 100 µM | KM12 > 100 µM | MOLT-4 > 100 µM | A549 > 100 µM
